In experiment [1] the test system is DU145 cells. In words: Proliferation assay DU145 (Method 3, crystal violet). The format is cell-based. Conditions: Homo sapiens, DU-145, 96 h; DU145, 4 days incubation; read-out: Inhibition of DU145 cell proliferation IC50. Here is the method: Cultivated tumour cells (HeLa, human cervical tumour cells, ATCC CCL-2; NCI-H460, human non-small cell lung carcinoma cells, ATCC HTB-177; A2780, human ovarian carcinoma cells, ECACC #93112519; DU 145, hormone-independent human prostate carcinoma cells, ATCC HTB-81; HeLa-MaTu-ADR, multidrug-resistant human cervical carcinoma cells, EPO-GmbH Berlin; Caco-2, human colorectal carcinoma cells, ATCC HTB-37; B16F10, mouse melanoma cells, ATCC CRL-6475) were plated at a density of 5,000 cells/well (DU145, HeLa-MaTu-ADR), 3,000 cells/well (NCI-H460, HeLa), 2,500 cells/well (A2780), 1,500 cells/well (Caco-2), or 1,000 cells/well (B16F10) in a 96-well multititer plate in 200 μL of their respective growth medium supplemented 10% fetal calf serum. After 24 hours, the cells of one plate (zero-point plate) were stained with crystal violet (see below), while the medium of the other plates was replaced by fresh culture medium (200 μl), to which the test substances were added in various concentrations (0 μM, as well as in the range of 0.001-10 μM; the final concentration of the solvent dimethyl sulfoxide was 0.5%). The cells were incubated for 4 days in the presence of test substances. Cell proliferation was determined by staining the cells with crystal violet: the cells were fixed by adding 20 μl/measuring point of an 11% glutaric aldehyde solution for 15 minutes at room temperature. After three washing cycles of the fixed cells with water, the plates were dried at room temperature. The cells were stained by adding 100 μl/measuring point of a 0.1% crystal violet solution (pH 3.0). After three washing cycles of the stained cells with water, the plates were dried at room temperature. The dye was dissolved by adding 100 μl/measuring point of a 10% acetic acid solution. The extinction was determined by photometry at a wavelength of 595 nm. The change of cell number, in percent, was calculated by normalization of the measured values to the extinction values of the zero-point plate (=0%) and the extinction of the untreated (0 μm) cells (=100%). […]

Experiment [2] has as its system B16F10 cells. In words: Proliferation assay B16F10 (Method 3, crystal violet). The format is cell-based. Particulars: Mus musculus, B16-F10, 96 h; B16F10, 4 days incubation; read-out: Inhibition of B16F10 cell proliferation IC50. Here is the method:
(§1) Cultivated tumour cells (HeLa, human cervical tumour cells, ATCC CCL-2; NCI-H460, human non-small cell lung carcinoma cells, ATCC HTB-177; A2780, human ovarian carcinoma cells, ECACC #93112519; DU 145, hormone-independent human prostate carcinoma cells, ATCC HTB-81; HeLa-MaTu-ADR, multidrug-resistant human cervical carcinoma cells, EPO-GmbH Berlin; Caco-2, human colorectal carcinoma cells, ATCC HTB-37; B16F10, mouse melanoma cells, ATCC CRL-6475) were plated at a density of 5,000 cells/well (DU145, HeLa-MaTu-ADR), 3,000 cells/well (NCI-H460, HeLa), 2,500 cells/well (A2780), 1,500 cells/well (Caco-2), or 1,000 cells/well (B16F10) in a 96-well multititer plate in 200 μL of their respective growth medium supplemented 10% fetal calf serum. After 24 hours, the cells of one plate (zero-point plate) were stained with crystal violet (see below), while the medium of the other plates was replaced by fresh culture medium (200 μl), to which the test substances were added in various concentrations (0 μM, as well as in the range of 0.001-10 μM; the final concentration of the solvent dimethyl sulfoxide was 0.5%). The cells were incubated for 4 days in the presence of test substances. Cell proliferation was determined by staining the cells with crystal violet: the cells were fixed by adding 20 μl/measuring point of an 11% glutaric aldehyde solution for 15 minutes at room temperature. After three washing cycles of the fixed cells with water, the plates were dried at room temperature. The cells were stained by adding 100 μl/measuring point of a 0.1% crystal violet solution (pH 3.0). After three washing cycles of the stained cells with water, the plates were dried at room temperature. The dye was dissolved by adding 100 μl/measuring point of a 10% acetic acid solution. The extinction was determined by photometry at a wavelength of 595 nm. The change of cell number, in percent, was calculated by normalization of the measured values to the extinction values of the zero-point plate (=0%) and the extinction of the untreated (0 μm) cells (=100%). The IC50 values (inhibitory concentration at 50% of maximal effect) were determined by means of a 4 parameter fit.

In experiment [3] the test system is HeLa-MaTu-ADR cells. Briefly: Proliferation assay HeLa-MaTu-ADR (Method 3, crystal violet). The format is cell-based. Conditions: Homo sapiens, 96 h, 4 days incubation, read-out: Inhibition of HeLa-MaTu-ADR cell proliferation IC50. Here is the method:
as §1

The target of experiment [4] is T1, CDK9/CycT1 (Homo sapiens, UniProt P50750).
T1 construct: Recombinant full-length His-tagged human CDK9 and CycT1; His; purchased Invitrogen PV4131; host or cells: insect cells
T1 sequence (P50750 whole entry): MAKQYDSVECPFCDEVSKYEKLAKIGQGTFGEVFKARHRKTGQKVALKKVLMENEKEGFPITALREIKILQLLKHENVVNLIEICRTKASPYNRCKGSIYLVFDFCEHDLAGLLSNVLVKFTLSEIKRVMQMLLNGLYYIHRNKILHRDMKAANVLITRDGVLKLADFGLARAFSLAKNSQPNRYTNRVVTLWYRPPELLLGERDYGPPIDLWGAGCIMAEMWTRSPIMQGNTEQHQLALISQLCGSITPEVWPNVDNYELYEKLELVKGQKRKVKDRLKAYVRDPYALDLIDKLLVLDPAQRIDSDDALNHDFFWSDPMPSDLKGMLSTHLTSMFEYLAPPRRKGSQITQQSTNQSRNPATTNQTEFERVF
T1 sequence (O60563 whole entry partner): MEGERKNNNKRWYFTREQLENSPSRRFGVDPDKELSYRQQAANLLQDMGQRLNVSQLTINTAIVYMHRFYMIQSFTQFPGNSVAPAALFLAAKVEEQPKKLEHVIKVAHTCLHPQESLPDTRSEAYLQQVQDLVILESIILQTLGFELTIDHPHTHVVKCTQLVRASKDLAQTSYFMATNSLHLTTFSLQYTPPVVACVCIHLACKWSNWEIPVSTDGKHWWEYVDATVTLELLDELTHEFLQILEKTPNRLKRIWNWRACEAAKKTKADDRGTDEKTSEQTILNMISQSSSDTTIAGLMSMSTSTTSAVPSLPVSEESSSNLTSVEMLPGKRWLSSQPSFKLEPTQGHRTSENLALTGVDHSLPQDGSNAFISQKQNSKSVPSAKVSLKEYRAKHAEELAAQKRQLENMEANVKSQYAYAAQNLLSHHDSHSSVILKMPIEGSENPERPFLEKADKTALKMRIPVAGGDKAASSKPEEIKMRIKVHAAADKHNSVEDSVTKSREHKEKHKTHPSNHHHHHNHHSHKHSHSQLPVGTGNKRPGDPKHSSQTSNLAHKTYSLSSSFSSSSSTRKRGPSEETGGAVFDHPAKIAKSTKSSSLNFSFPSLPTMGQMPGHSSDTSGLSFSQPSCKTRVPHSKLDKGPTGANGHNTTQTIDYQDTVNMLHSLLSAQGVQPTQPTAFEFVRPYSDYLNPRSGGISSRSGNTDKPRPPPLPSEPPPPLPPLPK
In words: CDK9/CycT1 high ATP kinase assay (Method 1b, TR-FRET). Particulars: 2 mM ATP; for pIC50: Method 1b; for Selectivity high ATP CDK9 over high ATP CDK2: IC50 (high ATP CDK2)/IC50 (high ATP CDK9): Methods 1b and 2b. The class given is biochemical. The method, then: 1b. CDK9/CycT1 High ATP Kinase Assay
CDK9/CycT1-inhibitory activity of compounds of the present invention at a high ATP concentration after preincubation of enzyme and test compounds was quantified employing the CDK9/CycT1 TR-FRET assay as described in the following paragraphs.
Recombinant full-length His-tagged human CDK9 and CycT1, expressed in insect cells and purified by Ni-NTA affinity chromatography, were purchase from Invitrogen (Cat. No PV4131). As substrate for the kinase reaction biotinylated peptide biotin-Ttds-YISPLKSPYKISEG (C-terminus in amid form) was used which can be purchased e.g. form the company JERINI peptide technologies (Berlin, Germany). For the assay 50 nl of a 100 fold concentrated solution of the test compound in DMSO was pipetted into a black low volume 384 well microtiter plate (Greiner Bio-One, Frickenhausen, Germany), 2 μl of a solution of CDK9/CycT1 in aqueous assay buffer [50 mM Tris/HCl pH 8.0, 10 mM MgCl2, 1.0 mM dithiothreitol, 0.1 mM sodium ortho-vanadate, 0.01% (v/v) Nonidet-P40 (Sigma)] were added and the mixture was incubated for 15 min at 22° C. to allow pre-binding of the test compounds to the enzyme before the start of the kinase reaction. Then the kinase reaction was started by the addition of 3 μl of a solution of adenosine-tri-phosphate (ATP, 3.3 mM=> final conc. in the 5 μl assay volume is 2 mM) and substrate (1.67 μM=> final conc. in the 5 μl assay volume is 1 μM) in assay buffer and the resulting mixture was incubated for a reaction time of 25 min at 22° C. The concentration of CDK9/CycT1 was adjusted depending of the activity of the enzyme lot and was chosen appropriate to have the assay in the linear range, typical concentrations were in the range of 0.5 μg/mL. The reaction was stopped by the addition of 5 μl of a solution of TR-FRET detection reagents (0.2 μM streptavidine-XL665 [Cisbio Bioassays, Codolet, France] and 1 nM anti-RB(pSer807/pSer811)-antibody from BD Pharmingen [#558389] and 1.2 nM LANCE EU-W1024 labeled anti-mouse IgG antibody [Perkin-Elmer, product no. AD0077]) in an aqueous EDTA-solution (100 mM EDTA, 0.2% (w/v) bovine serum albumin in 100 mM HEPES/NaOH pH 7.0).
The resulting mixture was incubated 1 h at 22° C. to allow the formation of complex between the phosphorylated biotinylated peptide and the detection reagents. Subsequently the amount of phosphorylated substrate was evaluated by measurement of the resonance energy transfer from the Euchelate to the streptavidine-XL. Therefore, the fluorescence emissions at 620 nm and 665 nm after excitation at 350 nm was measured in a HTRF reader, e.g. a Rubystar (BMG Labtechnologies, Offenburg, Germany) or a Viewlux (Perkin-Elmer). The ratio of the emissions at 665 nm and at […] was taken as the measure for the amount of phosphorylated substrate. The data were normalised (enzyme reaction without inhibitor=0% inhibition, all other assay components but no enzyme=100% inhibition).
On the technique in general: Time-resolved FRET reads energy transfer from a long-lived donor to a nearby acceptor.

We go through four molecules from US9902716B2, “Fluorinated benzofuranyl-pyrimidine derivatives containing a sulfone group” (Bayer Pharma Aktiengesellschaft, priority 2014, dated 2018).

pIC50: −log10 of the molar value.

Turning to `Cc1cc(CS(C)(=O)=O)cc(Nc2ncc(F)c(-c3ccc(F)c4ccoc34)n2)c1` [Example 4, 5-Fluoro-4-(4-fluoro-1-benzofuran-7-yl)-N-{3-methyl-5-[(methylsulfonyl)methyl]-phenyl}pyrimidin-2-amine], the pIC50 is 6.63 in experiment [1], 6.62 in experiment [2], 6.61 in experiment [3] and 9.00 in experiment [4]. In experiment [4], the “Selectivity high ATP CDK9 over high ATP CDK2: IC50 (high ATP CDK2)/IC50 (high ATP CDK9)” value (“Selectivity high ATP CDK9” below) is reported as 8560.

Turning to `CS(=O)(=O)Cc1cc(F)cc(Nc2ncc(F)c(-c3ccc(F)c4ccoc34)n2)c1` [Example 3], the pIC50 was 6.53 in experiment [1], 6.61 in experiment [2], 6.62 in experiment [3] and 8.70 in experiment [4].

As for `CCS(=O)(=O)Cc1cccc(Nc2ncc(F)c(-c3ccc(F)c4ccoc34)n2)c1` [Example 2, N-{3-[(Ethylsulfonyl)methyl]phenyl}-5-fluoro-4-(4-fluoro-1-benzofuran-7-yl)pyrimidin-2-amine], the figures for the pIC50 in experiment [2], in experiment [3] and in experiment [4] were 7.00, 7.00 and 8.05, respectively. Moreover, the “Selectivity high ATP CDK9” value in experiment [4] is 102.

With `CS(=O)(=O)Cc1cccc(Nc2ncc(F)c(-c3ccc(F)c4ccoc34)n2)c1` [Example 1, 5-Fluoro-4-(4-fluoro-1-benzofuran-7-yl)-N-{3-[(methylsulfonyl)methyl]-phenyl}pyrimidin-2-amine], the pIC50 in experiment [1] is 6.44; in experiment [2] it was 6.41; in experiment [3] it was 6.54; in experiment [4], 8.05. Besides, the “Selectivity high ATP CDK9” value in experiment [4] is 147.
